Assay results taken from US20250320213A1, “Nitrogen-Containing Heterocyclic Compounds” (Pfizer Inc., priority 2024, published 2025).

Biological target: T1, STAT6 (Homo sapiens, UniProt P42226)
T1 construct: stably transfected HaCaT keratinocyte cell line, which expresses NanoLuc luciferase reporter gene under the transcriptional control of the STAT6 responsive promoter; endogenous in cells; host or cells: HaCaT keratinocyte reporter cell line (stably transfected with a NanoLuc reporter)
T1 sequence (P42226 1-847): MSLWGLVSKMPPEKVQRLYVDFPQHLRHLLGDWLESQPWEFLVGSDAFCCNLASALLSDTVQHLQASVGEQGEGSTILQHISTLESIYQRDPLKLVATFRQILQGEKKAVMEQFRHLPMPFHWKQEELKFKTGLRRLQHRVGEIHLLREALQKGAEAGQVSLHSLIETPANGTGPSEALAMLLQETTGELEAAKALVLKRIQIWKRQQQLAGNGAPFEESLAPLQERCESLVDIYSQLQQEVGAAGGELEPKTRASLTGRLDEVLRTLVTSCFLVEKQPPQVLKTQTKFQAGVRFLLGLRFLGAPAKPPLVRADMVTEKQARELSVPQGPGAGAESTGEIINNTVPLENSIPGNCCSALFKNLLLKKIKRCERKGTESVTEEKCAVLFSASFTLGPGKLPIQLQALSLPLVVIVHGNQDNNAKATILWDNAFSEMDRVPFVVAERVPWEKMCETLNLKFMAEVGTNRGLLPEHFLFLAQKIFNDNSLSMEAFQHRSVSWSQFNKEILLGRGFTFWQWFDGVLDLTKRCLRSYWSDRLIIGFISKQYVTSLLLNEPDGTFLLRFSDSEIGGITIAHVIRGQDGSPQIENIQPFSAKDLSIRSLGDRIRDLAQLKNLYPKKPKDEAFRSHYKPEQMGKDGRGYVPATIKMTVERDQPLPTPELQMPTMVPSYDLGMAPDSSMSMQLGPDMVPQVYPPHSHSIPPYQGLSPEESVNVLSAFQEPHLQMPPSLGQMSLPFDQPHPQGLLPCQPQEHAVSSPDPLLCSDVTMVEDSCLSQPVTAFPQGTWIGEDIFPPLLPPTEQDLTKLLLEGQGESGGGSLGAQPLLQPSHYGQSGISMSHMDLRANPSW
Assay: STAT6 Reporter Luciferase Assay (IL-13 stimulated HaCaT keratinocyte NanoLuc reporter cells)
Format: cell-based
Settings: IL-13 stimulated HaCaT STAT6 NanoLuc reporter cells; read-out: Reporter EC50
Method in brief: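 Compounds were tested as 11-point, 4-fold series in duplicate, applied for 2 h at 37 °C in low-serum (2% FBS) DMEM. The cells were a stable HaCaT line with NanoLuc under a STAT6-responsive IL-13Ra2 promoter. After 4 h with 0.12 nM IL-13, Nano-Glo luminescence was measured.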

| Compound | EC50 |
| --- | --- |
| CC(C)n1nc(C(=O)NCc2ccc(NC(=O)N(C)C)cc2)c2c1CCN(c1ccc(C(=O)N3CCCNC(=O)C3)cn1)C2 [Example 221, N-(4-(3,3-dimethylureido)benzyl)-1-isopropyl-5-(5-(3-oxo-1,4-diazepane-1-carbonyl)pyridin-2-yl)-4,5,6,7-tetrahydro-1H-pyrazolo[4,3-c]pyridine-3-carboxamide] | 227 nM |
| CNC(=O)[C@@H]1CCCN1C(=O)c1ccc(N2CCc3c(c(C(=O)NCc4ccc(NC(=O)N(C)C)cc4)nn3C(C)C)C2)nc1 [Example 222, (S)-N-(4-(3,3-dimethylureido)benzyl)-1-isopropyl-5-(5-(2-(methylcarbamoyl)pyrrolidine-1-carbonyl)pyridin-2-yl)-4,5,6,7-tetrahydro-1H-pyrazolo[4,3-c]pyridine-3-carboxamide] | 1480 nM |
| CC(C)n1nc(C(=O)NCc2ccc(NC(=O)N(C)C)cc2)c2c1CCN(c1ccc(C(=O)N3CCNC(=O)C3)cn1)C2 [Example 223, N-(4-(3,3-dimethylureido)benzyl)-1-isopropyl-5-(5-(3-oxopiperazine-1-carbonyl)pyridin-2-yl)-4,5,6,7-tetrahydro-1H-pyrazolo[4,3-c]pyridine-3-carboxamide] | 201 nM |
| CC(=O)N1CCN(C(=O)c2ccc(N3CCc4c(c(C(=O)NCc5ccc(NC(=O)N(C)C)cc5)nn4C(C)C)C3)nc2)CC1 [Example 224, 5-(5-(4-acetylpiperazine-1-carbonyl)pyridin-2-yl)-N-(4-(3,3-dimethylureido)benzyl)-1-isopropyl-4,5,6,7-tetrahydro-1H-pyrazolo[4,3-c]pyridine-3-carboxamide] | 163 nM |
| COC[C@H]1CCCN1C(=O)c1ccc(N2CCc3c(c(C(=O)NCc4ccc(NC(=O)N(C)C)cc4)nn3C(C)C)C2)nc1 [Example 225, (R)-N-(4-(3,3-dimethylureido)benzyl)-1-isopropyl-5-(5-(2-(methoxymethyl)pyrrolidine-1-carbonyl)pyridin-2-yl)-4,5,6,7-tetrahydro-1H-pyrazolo[4,3-c]pyridine-3-carboxamide] | 644 nM |
| COC1(C)CN(C(=O)c2ccc(N3CCc4c(c(C(=O)NCc5ccc(NC(=O)N(C)C)cc5)nn4C(C)C)C3)nc2)C1 [Example 226, N-(4-(3,3-dimethylureido)benzyl)-1-isopropyl-5-(5-(3-methoxy-3-methylazetidine-1-carbonyl)pyridin-2-yl)-4,5,6,7-tetrahydro-1H-pyrazolo[4,3-c]pyridine-3-carboxamide] | 1930 nM |
| CC(C)n1nc(C(=O)NCc2ccc(NC(=O)N(C)C)cc2)c2c1CCN(c1ccc(C(=O)N3C[C@@H]4C[C@H]3C(=O)N4)cn1)C2 [Example 227, N-(4-(3,3-dimethylureido)benzyl)-1-isopropyl-5-(5-((1S,4S)-6-oxo-2,5-diazabicyclo[2.2.1]heptane-2-carbonyl)pyridin-2-yl)-4,5,6,7-tetrahydro-1H-pyrazolo[4,3-c]pyridine-3-carboxamide] | > 6120 nM |
| CC(C)n1nc(C(=O)NCc2ccc(NC(=O)N(C)C)cc2)c2c1CCN(c1ccc(C(=O)N3CCC4(COC4)C3)cn1)C2 [Example 228, 5-(5-(2-oxa-6-azaspiro[3.4]octane-6-carbonyl)pyridin-2-yl)-N-(4-(3,3-dimethylureido)benzyl)-1-isopropyl-4,5,6,7-tetrahydro-1H-pyrazolo[4,3-c]pyridine-3-carboxamide] | 116 nM |
| CCNC(=O)CN(C)C(=O)c1ccc(N2CCc3c(c(C(=O)NCc4ccc(NC(=O)N(C)C)cc4)nn3C(C)C)C2)nc1 [Example 229, N-(4-(3,3-dimethylureido)benzyl)-5-(5-((2-(ethylamino)-2-oxoethyl)(methyl)carbamoyl)pyridin-2-yl)-1-isopropyl-4,5,6,7-tetrahydro-1H-pyrazolo[4,3-c]pyridine-3-carboxamide] | 592 nM |
| CC(C)n1nc(C(=O)NCc2ccc(NC(=O)N(C)C)cc2)c2c1CCN(c1ccc(C(=O)N3C[C@@H]4OCCO[C@@H]4C3)cn1)C2 [Example 239, N-(4-(3,3-dimethylureido)benzyl)-5-(5-((4aR,7aS)-hexahydro-5H-[1,4]dioxino[2,3-c]pyrrole-6-carbonyl)pyridin-2-yl)-1-isopropyl-4,5,6,7-tetrahydro-1H-pyrazolo[4,3-c]pyridine-3-carboxamide] | 236 nM |
| CC(C)n1nc(C(=O)NCc2ccc(NC(=O)N(C)C)cc2)c2c1CCN(c1ccc(C(=O)N3CCC(C)(C#N)C3)cn1)C2 (centres unmarked) [Example 240, 5-(5-(3-cyano-3-methylpyrrolidine-1-carbonyl)pyridin-2-yl)-N-(4-(3,3-dimethylureido)benzyl)-1-isopropyl-4,5,6,7-tetrahydro-1H-pyrazolo[4,3-c]pyridine-3-carboxamide] | 3630 nM |
| CC(C)n1nc(C(=O)NCc2ccc(NC(=O)N(C)C)cc2)c2c1CCN(c1ccc(C(=O)N3C[C@@H]4CCO[C@@H]4C3)cn1)C2 [Example 241, N-(4-(3,3-dimethylureido)benzyl)-5-(5-((3aS,6aS)-hexahydro-2H-furo[2,3-c]pyrrole-5-carbonyl)pyridin-2-yl)-1-isopropyl-4,5,6,7-tetrahydro-1H-pyrazolo[4,3-c]pyridine-3-carboxamide] | 330 nM |
| CCOC1CN(C(=O)c2ccc(N3CCc4c(c(C(=O)NCc5ccc(NC(=O)N(C)C)cc5)nn4C(C)C)C3)nc2)C1 [Example 242, N-(4-(3,3-dimethylureido)benzyl)-5-(5-(3-ethoxyazetidine-1-carbonyl)pyridin-2-yl)-1-isopropyl-4,5,6,7-tetrahydro-1H-pyrazolo[4,3-c]pyridine-3-carboxamide] | 352 nM |
| CC(C)n1nc(C(=O)NCc2ccc(NC(=O)N(C)C)cc2)c2c1CCN(c1ccc(C(=O)N3CC4CC(C3)C4O)cn1)C2 (centres unmarked) [Example 243, N-(4-(3,3-dimethylureido)benzyl)-5-(5-(6-hydroxy-3-azabicyclo[3.1.1]heptane-3-carbonyl)pyridin-2-yl)-1-isopropyl-4,5,6,7-tetrahydro-1H-pyrazolo[4,3-c]pyridine-3-carboxamide] | 1650 nM |
| CC(C)n1nc(C(=O)NCc2ccc(NC(=O)N(C)C)cc2)c2c1CCN(c1ccc(C(=O)N3CC(C)(O)C3)cn1)C2 [Example 244, N-(4-(3,3-dimethylureido)benzyl)-5-(5-(3-hydroxy-3-methylazetidine-1-carbonyl)pyridin-2-yl)-1-isopropyl-4,5,6,7-tetrahydro-1H-pyrazolo[4,3-c]pyridine-3-carboxamide] | 196 nM |
| CC(C)n1nc(C(=O)NCc2ccc(NC(=O)N(C)C)cc2)c2c1CCN(c1ccc(C(=O)N3CC4(COCC(=O)N4)C3)cn1)C2 [Example 288, N-(4-(3,3-dimethylureido)benzyl)-1-isopropyl-5-(5-(6-oxo-8-oxa-2,5-diazaspiro[3.5]nonane-2-carbonyl)pyridin-2-yl)-4,5,6,7-tetrahydro-1H-pyrazolo[4,3-c]pyridine-3-carboxamide] | 1640 nM |
| CC(C)n1nc(C(=O)NCc2ccc(NC(=O)N(C)C)cc2)c2c1CCN(c1ccc(C(=O)N3C[C@H]4COC[C@H]4C3)cn1)C2 [Example 289, N-(4-(3,3-dimethylureido)benzyl)-5-(5-((3aR,6aS)-hexahydro-1H-furo[3,4-c]pyrrole-5-carbonyl)pyridin-2-yl)-1-isopropyl-4,5,6,7-tetrahydro-1H-pyrazolo[4,3-c]pyridine-3-carboxamide] | 312 nM |
| CC(C)n1nc(C(=O)NCc2ccc(NC(=O)N(C)C)cc2)c2c1CCN(c1ccc(C(=O)N3CC[C@H](C#N)C3)cn1)C2 [Example 291, (S)-5-(5-(3-cyanopyrrolidine-1-carbonyl)pyridin-2-yl)-N-(4-(3,3-dimethylureido)benzyl)-1-isopropyl-4,5,6,7-tetrahydro-1H-pyrazolo[4,3-c]pyridine-3-carboxamide] | 793 nM |
| CC(=O)NC1CN(C(=O)c2ccc(N3CCc4c(c(C(=O)NCc5ccc(NC(=O)N(C)C)cc5)nn4C(C)C)C3)nc2)C1 [Example 292, 5-(5-(3-acetamidoazetidine-1-carbonyl)pyridin-2-yl)-N-(4-(3,3-dimethylureido)benzyl)-1-isopropyl-4,5,6,7-tetrahydro-1H-pyrazolo[4,3-c]pyridine-3-carboxamide] | 990 nM |
| CC(C)n1nc(C(=O)NCc2ccc(NC(=O)N(C)C)cc2)c2c1CCN(c1ccc(C(=O)N3CC(=O)N(C)[C@H](C)C3)cn1)C2 [Example 293, (R)-5-(5-(3,4-dimethyl-5-oxopiperazine-1-carbonyl)pyridin-2-yl)-N-(4-(3,3-dimethylureido)benzyl)-1-isopropyl-4,5,6,7-tetrahydro-1H-pyrazolo[4,3-c]pyridine-3-carboxamide] | 100 nM |
